Results: patent US5801183A, “Aza and aza (N-oxy) analogs of glycine/NMDA receptor antagonists” (priority 1995, dated 1998)

Tests used:
[1] = molecular target: T1, NMDA receptor glycine site (Rattus norvegicus, UniProt P35439); assay: inhibition of [3H]DCKA binding to rat brain membranes
T1 construct: from tissue; host or cells: rat brain membranes
Protocol: (§1) The affinity of the compounds for the NMDA receptor glycine site also was measured by inhibition of [^3 H]DCKA binding to rat brain membranes. See, Canton, T. et al., J. Pharm. Pharmacol. 44:812-816 (1992).

mice = assay: maximum electroshock-induced seizure (MES) assay in mice; assay type: in vivo, male Swiss/Webster mice; conditions: Mus musculus, iv, drug applied i.v. as an aqueous basic solution, read-out: ED50 as an anticonvulsant in a MES experiment in mice
Text: The anticonvulsant activity of the glycine antagonists may be assessed in the maximum electroshock-induced seizure (MES) assay in mice. Electroshock was applied to male Swiss/Webster mice (20-30 g, Simonsen) through corneal electrodes (Swinyard, E. A., in Anticonvulsant Drugs, Mercier, J., ed., Pergamon Press, Oxford (1973), pp. 47-65). The seizure stimulus parameters were: 50 mA, 60 Hz, rectangular pulse, width 0.8 msec, duration 200 msec. Tonic hind limb extension observed after application of the electrical stimulus was recorded as occurrence of seizure. The drug was applied i.v. as an aqueous basic solution.

[2] = test system: glycine binding site of the NMDA receptor; conditions: cited from earlier work
[3] = in vivo; cited from earlier work
glycine/NMDA receptor = molecular target: T2, glycine/NMDA receptor (Rattus norvegicus, UniProt P35439); assay: affinity at the glycine/NMDA receptor; assay type: binding
T2 construct: rat brain membrane homogenates that are enriched in NMDA receptors; tissue Pel-Freez, Rogers, Ark; host or cells: frozen rat brain, membrane homogenate
Protocol: as §1
The glycine antagonist potency in vitro may be determined using a 1 μM glycine-stimulated [^3 H]-MK801 binding assay. This assay takes advantage of the fact that the binding of [^3 H]-MK801 to the PCP receptor inside the pore of the NMDA channel is dependent on the presence of both glutamate and glycine. […]
The assay is conducted using rat brain membrane homogenates that are enriched in NMDA receptors. […] The final pellet is suspended in three volumes of 50 mM HEPES, pH 7.4 and the protein concentration is determined with a standard dye-binding protein assay (Bio-Rad, Richmond, Calif.). […]
On the day of the assay, the previously prepared membranes are thawed and 5 mM Tris/HCl buffer, pH 7.4, is added to yield a final protein concentration of 0.156 mg/mL. […] To determine the effect of 1 μM glycine on the binding of [^3 H]-MK801, bound radioactivity in the presence of 10 μM glutamate alone (final concentration) is subtracted from the bound radioactivity in the presence of both 10 μM glutamate and 1 μM glycine (final concentration). […]

PCP receptor = conditions: Wong et al., PNAS 83:7104-7108 (1986); cited from earlier work
rodents = rodents / animal models; cited from earlier work
pigeons = conditions: cited from earlier work
log P (literature) = assay type: physicochemical; conditions: from benzene to the named substance

Structure (SMILES)	binding affinity for the glycine site (in words) [2]	blood/brain barrier penetration [3]	also measured
N#Cc1c(=O)[nH]c2cc(Cl)c(Cl)cc2[n+]1[O-] [3-Cyano-6,7-dichloro-1,2-dihydroquinoxaline-2-one-4-oxide]			IC50 [1]: 135 nM; ED50 (mice): 5 mg/kg
O=c1[nH]c2ccccc2c(O)c1[N+](=O)[O-] [4-hydroxy-3-nitro-1,2-dihydroquinolin-2-one]	high binding to the glycine receptor		
O=C(O)c1cc(O)c2c(Cl)cc(Cl)cc2n1 [5,7-dichlorokynurenic acid]	relatively high receptor binding affinity in vitro	cannot penetrate the blood/brain barrier	
Oc1nc2cc(Cl)cnc2c(O)c1-c1cccc(Oc2ccccc2)c1 [5-Aza-7-chloro-4-hydroxy-3-(m-phenoxyphenyl)quinolin-2-one]			Ki (glycine/NMDA receptor): 5 nM; ED50 (mice): 3 mg/kg
O=C(O)c1cc(O)c2ccc(Cl)cc2n1 [7-Cl-kynurenic acid]	relatively high receptor binding affinity in vitro	cannot penetrate the blood/brain barrier	
NC1CCN(O)C1=O (stereo not drawn) [HA-966]	partial agonist with micromolar affinity for the glycine binding site	sufficiently penetrates the blood/brain barrier	
C[C@]12N[C@H](Cc3ccccc31)c1ccccc12 [MK-801]			Kd (PCP receptor): ~3 nM
c1ccc(C2(N3CCCCC3)CCCCC2)cc1 [PCP, phencyclidine]			PCP-like behavioral effects (rodents): behavioral excitation (hyperlocomotion) in rodents; katalepsy in pigeons (pigeons): characteristic katalepsy in pigeons
NCC(=O)O [glycine]			Kd ([2]; used in Cheng and Prusoff equation, read-out: known affinity for the glycine binding site of the NMDA receptor): 100 nM
O=C(O)c1cc2ccccc2[nH]1 [indole-2-carboxylic acid]	relatively high receptor binding affinity in vitro	cannot penetrate the blood/brain barrier	
[O-][n+]1ccccc1 [pyridine N-oxide]			difference in log P from benzene (log P (literature)): -3.84
